35 compounds from patent publication US20240368174A1, “Antiviral Heterocyclic Compounds” (Enanta Pharmaceuticals, Inc., priority 2023, published 2024) can be followed below.

Structures are written as SMILES.

The experiment concerns genotype A, “Long” strain RSV. The experiment is described as follows: RSV-A assay (CPE, ATPlite readout in Hep-2 cells). It is filed as cell-based, Human respiratory syncytial virus. To be noted: activity class. From the text: Hep-2 cells, (originally derived from tumors grown in irradiated-cortisonised weanling rats that had been injected with epidermoid carcinoma tissue from the larynx of a person, but later found to be indistinguishable from HeLa cells by PCR DNA analysis), were used for the culturing of genotype A, “Long” strain RSV. Flasks were inoculated with RSV and viral stocks were collected once cytopathic effect (CPE) was greater than 90%. Viral stocks in 25% sucrose media were snap frozen using liquid nitrogen to increase viral stability. Viral stock titers were quantified by tissue culture infectious dose 50% (TCID50) using 8,000 cells per well and 3-fold viral dilutions across a 96-well plate, cultured for 4 days. Viral stock titers were also quantified by a plaque forming unit assay, as described elsewhere.
Following extensive parameter testing, the final assay is run as follows: Hep-2 cells are seeded into the inner 60 wells of a 96-well plate at 8,000 cells per well in a volume of 50 μL using Growth Media (DMEM without phenol red, 1% L-Glut, 1% Penn/Strep, 1% nonessential amino acids, 10% heat-inactivated FBS). 2-fold serial dilutions of control and test compounds are added to the wells in duplicate in a total volume of 25 μL. Viral stock is then added to the wells at a multiplicity of infection (MOI) of 0.1 in a volume of 25 μL, bringing the total volume of each well to 100 μL. The MOI is calculated using the PFU/mL, or TCID50 if unavailable. Each 96-well plate has a control column of 6 wells with cells and virus but no compound (negative control, max CPE), a column with cells but no compound or virus (positive control, minimum CPE), and a column with no cells or virus or compound (background plate/reagent control). The control wells with cells but no virus are given an additional 25 μL of growth media containing an equal quantity of sucrose as those wells receiving the viral stock in order to keep consistent in media and volume conditions. The outer wells of the plate are filled with 125 μL of moat media (DMEM, 1% Penn/Strep) to act as a thermal and evaporative moat around the test wells. Following a 5-day incubation period, the plates are read using ATPlite (50 uL added per well), which quantifies the amount of ATP (a measure of cell health) present in each well. Assay plates are read using the Envision luminometer. […] EC50 ranges are as follows: A<0.2 μM; B>0.2 μM.
Background: Cellular ATP, detected with luciferase, serves as a proxy for viable cell number.

Setting [1] is: human respiratory syncytial virus.

`COc1cc(C(=O)NC[C@](O)(c2cc3c(c(-c4ccnc(Cl)c4Cl)n2)OC[C@]3(C)C(N)=O)C2CC2)cc2cn(C3(F)CC3)nc12` [Example 441]: the half-maximal effective concentration (EC50) (as a rule, the concentration that produces a half-maximal response) under setting [1] is below 200 nM.

The compound `COc1cc(C(=O)NC[C@](O)(c2cc3c(c(-n4ccc5ccccc54)n2)OC[C@]3(C)C(N)=O)C2CC2)cc2oc(C3CC3)nc12` [Example 748] displayed an EC50 under setting [1] below 200 nM.

In turn, `COc1cc(C(=O)NC[C@](O)(c2cc3c(c(-n4ccc5cccc(F)c54)n2)OC[C@]3(C)C(N)=O)C2CC2)cc2cn(C3CC3)nc12` [Example 455] registered an EC50 under setting [1] below 200 nM.

The compound `COc1cc(C(=O)NC[C@](O)(c2cc3c(c(-c4ccn(C)c(=O)c4Cl)n2)OC[C@]3(C)C(N)=O)C2CC2)cc2cn(C3CC3)nc12` [Example 423] yielded a concentration giving a half-maximal response (EC50) under setting [1] above 200 nM.

The compound `COc1cc(C(=O)NC[C@@](O)(c2cc3c(c(-c4ccnc(Cl)c4Cl)n2)OC[C@]3(C)C(N)=O)C2CC2)cc2cn(C(F)F)nc12` [Example 733] showed an EC50 under setting [1] below 200 nM.

Under setting [1], `COc1cc(C(=O)NC[C@](O)(c2cc3c(c(-c4cncc(Cl)c4Cl)n2)OC[C@]3(C)C(N)=O)C2CC2)cc2oc(C3CC3)nc12` [Example 774] had an EC50 below 200 nM.

Turning to `COc1cc(C(=O)NC[C@](O)(c2cc3c(c(-c4cccc(F)c4Cl)n2)OC[C@]3(C)C(N)=O)C2CC2)cc2oc(C3CC3)nc12` [Example 616], the EC50 under setting [1] was below 200 nM.

Under setting [1], `COc1cc(C(=O)NC[C@](O)(c2cc3c(c(-c4ccnc(C)c4Cl)n2)OC[C@]3(C)C(N)=O)C2CC2)cc2cn(C3(F)CC3)nc12` [Example 754] had an EC50 below 200 nM.

The compound `COc1cc(C(=O)NC[C@](O)(c2cc3c(c(-c4cc(C(F)(F)F)ncc4F)n2)OC[C@]3(C)C(N)=O)C2(F)CC2)cc2cn(C3CC3)nc12` [Example 458] came in with an EC50 under setting [1] below 200 nM.

Consider `Cc1nccc(-c2nc([C@@](O)(CNC(=O)c3cc(Cl)c4nn(C5CC5)cc4c3)C3CC3)cc3c2OC[C@]3(C)C(N)=O)c1Cl` [Example 674], for which the concentration for a half-maximal effect (EC50) under setting [1] was below 200 nM.

The compound `COc1cc(C(=O)NC[C@](O)(c2cc3c(c(-c4ccnc(C(F)(F)F)c4Cl)n2)OC[C@]3(C)C(N)=O)C2(F)CC2)cc2cn(C3CC3)nc12` [Example 784] yielded an EC50 under setting [1] below 200 nM.

In turn, `COc1cc(C(=O)NC[C@](O)(c2cc3c(c(-c4ccnc(C)c4Cl)n2)OC[C@]3(C)C(N)=O)C2CC2)cc2cn(C3CC3)nc12` [Example 426] showed an EC50 under setting [1] below 200 nM.

As for `COc1cc(C(=O)NC[C@](O)(c2cc3c(c(-n4ccc5ccc(F)cc54)n2)OC[C@]3(C)C(N)=O)C(F)(F)F)cc2cn(C3CC3)nc12` [Example 853], the EC50 under setting [1] was below 200 nM.

For `COc1cc(C(=O)NC[C@](O)(c2cc3c(c(-n4ccc5cccc(F)c54)n2)OC[C@]3(C)C(N)=O)C(F)(F)F)cc2cn(C3CC3)nc12` [Example 854], the half-maximal effective concentration (EC50) under setting [1] was below 200 nM.

Regarding `COc1cc(C(=O)NC[C@@](O)(c2cc(F)nc(F)c2)c2cc3c(c(-c4cccc(Cl)c4Cl)n2)OC[C@]3(C)C(N)=O)cc2cn(C3CC3)nc12` [Example 575], the EC50 under setting [1] was below 200 nM.

Regarding `COc1cc(C(=O)NC[C@](O)(c2cc3c(c(-c4cc[nH]c(=O)c4Cl)n2)OC[C@]3(C)C(N)=O)C2CC2)cc2cn(C3CC3)nc12` [Example 436], the half-maximal effective concentration (EC50) under setting [1] was above 200 nM.

The compound `COc1cc(C(=O)NC[C@](O)(c2cc3c(c(-n4ccc5cc(F)ccc54)n2)OC[C@]3(C)C(N)=O)C2CC2)cc2cn(C3CC3)nc12` [Example 453] gave a half-maximal effective concentration (EC50) under setting [1] below 200 nM.

Take `COc1cc(C(=O)NC[C@@](O)(c2ccnc(N(C)C)c2)c2cc3c(c(-c4cc(Cl)c(F)cc4F)n2)OC[C@]3(C)C(N)=O)cc2cn(C3CC3)nc12` [Example 884]: the EC50 under setting [1] is below 200 nM.

`COc1cc(C(=O)NC[C@](O)(c2cc3c(c(-n4ccc5c(F)cccc54)n2)OC[C@]3(C)C(N)=O)C2CC2)cc2cn(C3CC3)nc12` [Example 452] displayed an EC50 under setting [1] below 200 nM.

As for `COc1cc(C(=O)NC[C@](O)(c2cc3c(c(-c4ccnc5c4CCC5)n2)OC[C@]3(C)C(N)=O)C2CC2)cc2cn(C3CC3)nc12` [Example 421], the half-maximal effective concentration (EC50) under setting [1] was below 200 nM.

Under setting [1], `C[C@]1(C(N)=O)COc2c1cc([C@@](O)(CNC(=O)c1cc(OCCO)c3nn(C4CC4)cc3c1)C1CC1)nc2-c1ccc(F)c(Cl)c1Cl` [Example 677] displayed an EC50 below 200 nM.

In turn, `COc1cc(C(=O)NC[C@](O)(c2cc3c(c(-c4cc(C(F)(F)F)ncc4F)n2)OC[C@]3(C)C(N)=O)C2(F)CC2)cc2cn(C(F)F)nc12` [Example 460] had a concentration giving a half-maximal response (EC50) under setting [1] below 200 nM.

Under setting [1], `COc1cc(C(=O)NC[C@](O)(c2cc3c(c(-c4cccc(OC(F)(F)F)c4Cl)n2)OC[C@]3(C)C(N)=O)C2CC2)cc2cn(C3CC3)nc12` [Example 440] returned a concentration giving a half-maximal response (EC50) below 200 nM.

As to `COc1cc(C(=O)NC[C@](O)(c2cc3c(c(-c4ccnc(Cl)c4Cl)n2)OC[C@]3(C)C(N)=O)C2CC2)cc2cn(C(F)F)nc12` [Example 732], the EC50 is below 200 nM.

Consider `COc1cc(C(=O)NC[C@](O)(c2cc3c(c(-c4ccnc(C)c4Cl)n2)OC[C@]3(C)C(N)=O)C2CC2)cc2cc(C3CC3)nn12` [Example 673], for which, under setting [1], the EC50 was below 200 nM.

In the case of `COc1cc(C(=O)NC[C@](O)(c2cc3c(c(-c4cncc(Cl)c4Cl)n2)OC[C@]3(C)C(N)=O)C2CC2)cc2cn(C3CC3)nc12` [Example 740], under setting [1], the concentration giving a half-maximal response (EC50) was below 200 nM.

Take `COc1cc(C(=O)NC[C@](O)(c2cc3c(c(-c4cc(C(F)(F)F)ncc4F)n2)OC[C@]3(C)C(N)=O)C(F)(F)F)cc2cn(C(F)F)nc12` [Example 424]: the 50% effective concentration (EC50) under setting [1] was below 200 nM.

`COc1cc(C(=O)NC[C@](O)(c2cc3c(c(-n4ncc5c(F)cccc54)n2)OC[C@]3(C)C(N)=O)C(F)(F)F)cc2cn(C3CC3)nc12` [Example 830]: the EC50 under setting [1] was below 200 nM.

`COc1cc(C(=O)NC[C@](O)(c2cc3c(c(-c4ccnc5c4ccn5C)n2)OC[C@]3(C)C(N)=O)C2CC2)cc2cn(C3CC3)nc12` [Example 420] returned a half-maximal effective concentration (EC50) under setting [1] below 200 nM.

`COc1cc(C(=O)NC[C@](O)(c2cc3c(c(-c4cccc(F)c4Cl)n2)OC[C@]3(C)C(N)=O)C2CC2)cc2cn(C(F)F)nc12` [Example 614] displayed an EC50 under setting [1] below 200 nM.

`COc1cc(C(=O)NC[C@](O)(c2cc3c(c(-c4cc(C(F)F)ncc4Cl)n2)OC[C@]3(C)C(N)=O)C2CC2)cc2cn(C3CC3)nc12` [Example 437]: the EC50 under setting [1] is below 200 nM.

The compound `COc1cc(C(=O)NC[C@](O)(c2cc3c(c(-n4ccc5c(F)cccc54)n2)OC[C@]3(C)C(N)=O)C(F)(F)F)cc2cn(C(F)F)nc12` [Example 684] showed a concentration for a half-maximal effect (EC50) under setting [1] below 200 nM.

Regarding `COc1cc(C(=O)NC[C@](O)(c2cc3c(c(-c4ccnc(C)c4Cl)n2)OC[C@]3(C)C(N)=O)C2CC2)cn2cc(C3CC3)nc12` [Example 672], the half-maximal effective concentration (EC50) under setting [1] was below 200 nM.

Under setting [1], `COc1cc(C(=O)NC[C@](O)(c2cc3c(c(-c4ccnc(C)c4Cl)n2)OC[C@]3(C)C(N)=O)C2CC2)cc2cn(C(F)F)nc12` [Example 753] displayed an EC50 below 200 nM.

Take `COc1cc(C(=O)NC[C@](O)(c2cc3c(c(-c4cncc(Cl)c4Cl)n2)OC[C@]3(C)C(N)=O)C2CC2)cc2cn(C3(F)CC3)nc12` [Example 773]: the EC50 under setting [1] is below 200 nM.
